Columns and labels:
[1] = test system: HIF1α; assay: HIF1α stabilization in cell culture; type: cell-based; conditions: for effect of respiratory chain inhibition on HIF1α stabilization: hypoxia, respiratory chain inhibitor alone
Description: It has previously been noted that a paradox exists between mitochondrial dysfunction and cellular sensing of hypoxia (Chandel et al., Proc. Natl. Acad. Sci. U.S.A. 95:11715-20 (1998)). In cell culture, inhibition of the respiratory chain prevents HIF stabilization, even under low oxygen conditions that would otherwise trigger the hypoxia response. Proposed explanations include higher cellular oxygen tensions and […] ROS production during states of mitochondrial dysfunction. While this phenomenon has been noted in the hypoxia field, it has received less attention in the context of mitochondrial disease pathogenesis. If such a paradox extends to mitochondrial disease patients, such individuals may be unable to stabilize HIF in physiological conditions of hypoxia.

[2] = test system: HT-29s, HEK 293s and K562s; assay: Rescue of growth defect caused by respiratory chain inhibition; type: cell-based
Description: After VHL was confirmed as an effective therapeutic target for mitochondrial disease, clinically-relevant options for triggering the hypoxia response were studied. While a VHL-inhibitor has been reported (Buckley et al., J. Am. Chem. Soc. 134:4465-68 (2012)), it is not cell permeable. However, PHD inhibitors have been extensively developed for the treatment of anemia of chronic kidney disease and ischemic injury (Rabinowitz, J. Med. Chem. 56:9369-9402 (2013)). The small molecule PHD inhibitor, FG-4592, also known as roxadustat, is currently in Phase III clinical trials for chronic kidney disease. […] FG-4592 treatment may mimic VHL-knockout, thus triggering a broader hypoxia transcriptional program. Compounds that trigger the hypoxia response including VHL-inhibitors and PHD inhibitors are therapeutics for mitochondrial dysfunction. Pre-treatment and incubation with FG-4592 almost completely rescued the growth defects caused by deficiency of multiple respiratory complexes, in multiple cell lines (FIGS. 12-13). […] Complex I, III or V inhibition stunts cell growth in most cell lines, including HT-29s, HEK 293s and […]. […] The nearly full rescue of the disease state across different cell lines and across chemical lesions highlights the general utility of this approach.

[3] = test system: HIF-responsive genes (HK2, GLUT1, LDHA, PDK1); assay: Transcription of energy metabolism genes (hypoxia transcriptional program); type: cell-based
Description: The HIF transcriptional response is believed to be protective during states of hypoxia, at least in part by causing a rewiring of energy metabolism. By shifting from aerobic respiration to anaerobic glycolysis, the HIF1α response can maintain the energy supply at low oxygen tensions. FG-4592 caused normoxic stabilization of HIF proteins. […] Glucose import and phosphorylation are rate-limiting steps in the glycolytic flux of many tissues. […] HIF1α activation is also known to shunt the carbon supply away from the TCA cycle and towards the LDH reaction. Several mechanisms have been proposed for this shift away from aerobic respiration, including pyruvate dehydrogenase phosphorylation. […] Thus, cells were unable to mount the appropriate transcriptional response by endogenous mechanisms.

[4] = test system: HT-29 cells; assay: Anaerobic glycolysis measured as lactic acid; type: cell-based; conditions: basal conditions and with respiratory chain inhibition
Description: (§1) The shift in energy metabolism was confirmed by measuring lactic acid as the end-product of anaerobic glycolysis and oxygen consumption as a proxy for aerobic respiration. […] Thus cells are able to shift towards glycolysis using endogenous defense mechanisms; however, a transcriptional response is needed to increase the glycolytic flux enough to maintain cellular growth rates. Furthermore, basal oxygen consumption was decreased with FG-4592 treatment. This may be protective in the setting of mitochondrial dysfunction, as it may limit the amount of ROS produced by impaired electron transport. Genetic and small molecule activation of the HIF pathway enabled cells to cope with mitochondrial dysfunction at multiple steps of the electron transport chain and in multiple cell types. The small molecule, FG-4592, normoxically stabilized HIF and thereby increased glycolysis beyond allosteric mechanisms. Furthermore, it bypassed the paradox between mitochondrial dysfunction and HIF stabilization during hypoxia.

[5] = test system: multiple cell types; assay: Oxygen consumption as proxy for aerobic respiration; type: cell-based; conditions: FG-4592 treatment
Description: as §1

[6] = test system: hypoxia response elements (HREs) fused to GFP; assay: Zebrafish hypoxia reporter strain (HRE-GFP) fluorescence; type: in vivo; conditions: 6 hours of exposure to 2.5 μM FG-4592
Description: A zebrafish reporter strain was used to monitor activation of the hypoxia transcriptional response (Santhakumar et al., Cancer Res. 72, 4017-27 (2012)). The reporter fish has a promoter containing hypoxia response elements (HREs) fused to GFP. Hypoxia exposure or VHL knockdown causes an increase in GFP expression, allowing for in vivo monitoring of the hypoxia response. This model system could be used to monitor drug-target engagement and pharmacodynamics of a HIF activator (Chowdhury et al., ACS Chem Biol. 8:1488-96 (2013)).
Antimycin inhibits oxygen consumption of zebrafish embryos (Stackley, et al., PLOS One. 6, e25652 (2011)).

[7] = test system: zebrafish embryos; assay: Zebrafish embryo survival with Antimycin
[8] = test system: K562 cells; assay: Mitochondrial disease model: K562 cell growth with Antimycin; type: cell-based; conditions: three weeks
Method: Mitochondrial disease was modeled in the suspension cell line, K562, and a CRISPR screen was performed to identify potential drug targets. The natural product, Antimycin, was used as a complex III inhibitor of the respiratory chain. In the presence of Antimycin, the respiratory chain is unable to oxidize high energy reducing equivalents to power ATP production. However, redox recycling by the cytoplasmic lactate dehydrogenase reaction, allows other NAD+ dependent reactions to proceed. […] Mitochondrial disease was modeled with the addition of Antimycin alone (moderate disease) or Antimycin in combination with removal of pyruvate (severe disease), using cell growth as a proxy for disease magnitude (FIG. 3). K562 cells were infected with a ˜65,000 sgRNA library, targeting ˜18,000 genes (Shalem et al., Science, 343:84-88 (2014)). After one week of genome editing, the pool of knockout cells were divided into experimental conditions of untreated, moderate disease and severe disease states (FIG. 4). Samples for an enrichment screen were collected by allowing the knockout pool to grow in selection conditions for three weeks. The relative growth between untreated and moderate disease conditions was 100-fold and between untreated and severe disease conditions was 10,000-fold (FIG. 5). […]

Which “effect of respiratory chain inhibition on HIF1α stabilization” value [1] does the source give for `CC[C@H]1/C=C/C=C/C[C@@H](C)[C@H](O)[C@@](C)(O)C(=O)[C@@H](C)[C@H](O)[C@@H](C)C(=O)[C@@H](C)[C@H](O)[C@@H](C)/C=C/C(=O)O[C@@H]2[C@H](C)[C@H](CC1)O[C@]1(CC[C@H](C)[C@H](C[C@@H](C)O)O1)[C@H]2C` [Oligomycin] here?
The value was “prevented HIF1α stabilization during hypoxia”.

Which results are given for `Cc1nc(C(=O)NCC(=O)O)c(O)c2ccc(Oc3ccccc3)cc12` [FG-4592, N-[(4-hydroxy-1-methyl-7-phenoxy-3-isoquinolinyl)carbonyl]glycine]?
rescue of growth under ATP synthase inhibition ([2]; ATP synthase inhibition): significantly rescued; normal growth rates ([2]; no respiratory chain inhibition): minimally increased; rescue of growth defect from Complex I, III or V inhibition ([2]; ~50 uM FG-4592 in advance and during respiratory chain dysfunction, dose-dependent): nearly or completely rescued this growth defect; HIF1α stabilization ([1]; hypoxic conditions): stabilized HIF1α beyond the endogenous hypoxia response of untreated cells; HIF1α stabilization during respiratory chain inhibition ([1]; mitochondrial dysfunction, normoxia or hypoxia): enabled HIF1α stabilization in the face of mitochondrial dysfunction; HIF1α stabilization ([1]; normoxic conditions): stabilized the transcription factor even during normoxia; transcription of glucose transporter 1 (GLUT1) ([3]; FG-4592 for 24 h): upregulated in multiple cell types; transcription of hexokinase 2 (HK2) ([3]; FG-4592 for 24 h): upregulated in multiple cell types; transcription of lactate dehydrogenase (LDHA) ([3]; FG-4592 treatment): similarly upregulated; transcription of pyruvate dehydrogenase kinase (PDK1) ([3]; after FG-4592 treatment): significant upregulation; hypoxia transcriptional program ([3]; during respiratory chain inhibition): triggered the hypoxia transcriptional program, even during respiratory chain inhibition; increase of glycolysis [4]: ~60%; basal oxygen consumption [5]: decreased; fluorescence of reporter fish [6]: robust increase in fluorescence; survival of zebrafish embryos ([7]; intermediate concentrations of Antimycin): nearly doubled survival

Antimycin was tested. Which “relative growth between untreated and moderate disease conditions” value ([8]; moderate disease: 100 nM Antimycin with 1 mM pyruvate) did it give?
Its value is 100 fold.

And the “relative growth between untreated and severe disease conditions” value ([8]; severe disease: 100 nM Antimycin without pyruvate)?
The value was 10,000 fold.

What about the “effect of respiratory chain inhibition on HIF1α stabilization” value [1] of the same molecule?
Its value is “prevented HIF1α stabilization during hypoxia”.

What about the “toxicity to zebrafish embryos” value ([7]; prolonged treatment at low nanomolar concentrations) of the same molecule?
Its value is “resulted in death of embryos”.

From patent US12350290B2, “Compositions and methods that promote hypoxia or the hypoxia response for treatment and prevention of mitochondrial dysfunction and oxidative stress disorders” (The General Hospital Corporation, priority 2015, dated 2025)
